Reference: US20120264804A1, “T TYPE CALCIUM CHANNEL BLOCKERS AND THE TREATMENT OF DISEASES” (University of Virginia Patent Foundation, priority 2004, published 2012)
Read-outs that look alike come from different tables or passages of the source.

Assays:
Jurkat cells = test: Proliferation of Jurkat cells with or without ionomycin; type: cell-based, human; conditions: for IC50: Homo sapiens, Jurkat cells, 48 hrs
Protocol: FIG. 2. The Ca2+ ionophore ionomycin overcomes the inhibition of Ca2+ entry into and proliferation of Jurkat cells produced by TH-1177. Panel A. Ca2+ entry into Jurkat cells was determined as described in Materials and Methods. Ionomycin at the indicated concentrations was added at 30 s and the mitogenic monoclonal antibody (OKT3 was added at a concentration of 1 ug/ml at 60 s. Either EGTA at 2.5 mM or TH-1177 at the indicated concentrations was added at 150 s. The percentage inhibition was determined as described in Material and Methods. Panel B. Jurkat cells were grown for 48 hrs in the presence (open symbols) or absence (closed symbols) of 30 nM ionomycin and the indicated concentrations of TH-1177. Percent control growth was determined as described in Materials and Methods.
(§1) LNCaP cells at 2.5×10^4 cells/well or PC-3 cells at 5×10^4 cells/well, both in a final volume of 100 IJI, were plated in triplicate in standard flat-bottomed 96-well tissue culture plates in the presence of drug or vehicle (DMSO). Unless otherwise indicated, cells were grown for 48 h at 37° C. in a CO2 incubator. Relative cell growth was determined with the CellTiter 96 aqueous cell proliferation assay (Promega, Madison, Wis.) as described by the manufacturer using an automated plate reader. Results were calculated in a blinded fashion and are the means of triplicate determinations.

[1] = tested on: PC3 human prostate cancer cells; test: Proliferation of PC3 prostate cancer cells (CellTiter 96); type: cell-based; conditions: read-out: IC50 for inhibiting proliferation of PC3 prostate cancer cells
Protocol: FIG. 5, TH-1177 and TH-1211 are stereoisomers about one of two chiral centers and have different potencies at inhibiting the proliferation of PC3 prostate cancer cells. Panel A: The structures of TH-1177 and TH-1211 were determined as described in Materials and Methods. The diastereomers are racemic at the benzhydrol center (solid arrows) and enantiomeric at the proline center (open arrows) with TH-1177 having the S configuration and TH-1211 having the R. Panel B: The proliferation of PC3 human prostate cancer cells was determined as described in Materials and Methods.
as §1

[2] = tested on: xenografted human PC3 prostate cancer cells; conditions: treatment with TH-1177; Haverstick et al. 2000; cited from earlier work

For C[C@H](CCC(=O)O)C[C@H](C)C[C@H](C)C(=O)/C=C(\O)[C@H](C)C[C@H](C)C/C=C/[C@@H](C)[C@@H](O)[C@@H](C)[C@@H](O)C[C@@H]1CC[C@@](C)([C@H]2CC[C@@](C)([C@@H](C)O)O2)O1 [ionomycin, reference compound], the “effect on proliferation of ionomycin alone” value (Jurkat cells; 30 nM ionomycin alone) was “no effect”.
In the case of COc1ccc(CCN2CCCC2COC(c2ccccc2)c2ccc(Cl)cc2)cc1 (stereo not drawn) [TH-1177], the IC50 [1] is given as 14 µM, the “lifespan of mice bearing xenografted PC3 cells” value [2] is given as “significantly extended the lifespan” and the IC50 (Jurkat cells; in the presence of 30 uM ionomycin, read-out: IC50 of TH-1177 for inhibition of proliferation, in the presence of ionomycin) is given as 4.6 µM. For the same molecule, the IC50 (Jurkat cells; ionomycin absent, read-out: IC50 of TH-1177 for inhibition of proliferation, in the absence of ionomycin) was 17.8 µM.
COc1ccc(CCN2CCCC2COC(c2ccccc2)c2ccc(Cl)cc2)cc1 (stereo not drawn) [TH-1211] gave an IC50 [1] of 42 µM.
